Experimental findings from patent US5214034A, “Catechol derivatives, and preventive and remedial preparations for regressive disorders in the central nervous system containing the same” (priority 1986, dated 1993) are described below.

A short description of one data set: Acute toxicity (LD50). The following applies: mouse, in vivo. The method, then: The catechol derivative having normal type saturated lower alkyl groups on the ring was administered by intravenous injection (i.v.), intraperitoneal injection (i.p.) or oral route (p.o.) to male ddy mice of 4-week old. The LD50 values (mg/kg) were measured by an ordinary method.

The test system of another data set is NGF. Nature of the data set: NGF production in the central nervous system of normal rats by intraperitoneal injection (NGF content of brain tissue, ELISA). In kind it is in vivo, rat (Wistar male). The following applies: Table 7, i.p., three times every other day; for NGF content after 48 hr.: 48 hours after final administration; for NGF content after 7 days: 7 days after final administration. The method, then: The derivative (A), e.g. R=Two H, R1 =H and R2 =n-propyl (hereinafter referred to as 4-n-propylcatechol), was administered to normal rats by intraperitoneal injection, and the effect was examined.
4-n-Propylcatechol was administered by intraperitoneal injection 4 times every other day in a dosage of 5 mg/kg. The rats were killed two days after the final administration. The NGF content of each parts in brain was measured. The content was compared with those of control group which was administered saline alone.
A variety of the derivative was administered three times every other day. The content of NGF in the forebrain after 48 hours and 7 days from the final administration was measured and illustrated in Table 7.
Wistar male rats (9-10-week old, 200-250 g of weight) were intraperitoneally injected with the test derivative in a volume of 0.5 ml as a saline solution, emulsion or suspension. Dose and administration times were the same as above. The rats were killed by a hard spinal blow two days after the final administration. Each parts of brain were dissected and subjected to the following treatment under ice cooling.
Each parts of brain were weighed and homogenized for 30 strokes by a Dounce type homogenizer in a homogenization buffer (0.1 M Tris-HCl, containing 2% bovine serum albumin fraction V, 2% gelatin, 1.0 M NaCl, 0.02% NaN3, 2 mM EDTA and 2.6 kiu/ml of aprotinin, pH 7.6) at a concentration of 10% (W/V) (only septum 5% (W/V)). Each homogenate was centrifuged at 100,000 xg for 10 minutes, and 50 μl of supernatant was added with the same amount of a dilution buffer (0.1 M Tris-HCl containing 2% bovine serum albumin fraction V, 0.05% NaN3 and 20 mM CaCl2, pH 7.6). Determination was conducted in accordance with a method of S. Furukawa et al. by using a high sensitivity ELISA system on 8-NGF which was described in J. Neurochem., 40, 734-744 (1983). Lower limit of determination is 0.25 pg/ml. Data are indicated as a mean value ±SE on the NGF content of tissue (pg/mg wet tissue) of five rats.

In data set [1] the test system is production and secretion of NGF on L-M cells. Nature of the data set: Promoting action for the production and secretion of NGF on L-M cells of mouse (ELISA). The data set is classed as cell-based. The conditions noted are these: Mus musculus. The source says:
Catecholamines have also been found in a relatively high concentration to accelerate these functions without being mediated by adrenergic receptors [Y. Furukawa et al., J. Biol. Chem., 261, 6039-6047 (1986)].
The compound having a high activity in Table 1, that is, the catechol derivative having a n-alkyl group in the 3 or 4 position on the ring has been observed an acute cell toxicity in higher concentrations. The toxicity was considered the result of two hydroxyl groups in the catechol structure. Then the hydroxyl groups were esterified or etherified and the resulting derivative was examined the effect on the activity for the production and secretion of NGF.
The experiment was performed according to the procedures of Y. Furukawa et al. which is described in J. Bis Chem., 261, 6039-6047 (1986).
The medium was cultured for 3 days at a temperature of 37° C. After completing the confluency (about 10^6 cells/well), the medium was changed to Medium 199 (0.5 ml/well) containing 0.5% bovine serum albumin (Fraction V, a product of Armour Co.). The sample of the derivative is contained in the medium at a prescribed concentration as illustrated in the Tables.
A general note: An ELISA detects its analyte on a solid surface through an enzyme-linked reagent.

Data set [2] concerns production and secretion of NGF in brain astroglial cells. Nature of the data set: Promoting activity for the production and secretion of NGF in brain astroglial cells of mouse (ELISA). Here is the method: The experiment was performed by inducing the astroglial cells from mouse forebrain to culture system according to the procedures of S. Furukawa et al. which is described in Biochem. Biophys. Res. Commun., 136, 57-63 (1986).
That is, forebrains of 8-day old mice were dissected out and cut into small pieces. […] Cells and cell clamps were recovered by centrifugation at 200 xg for 5 minutes. They were cultured in Dulbecco modified Eagle's medium (a product of Gibco Co. hereinafter abbreviated as DMEM) containing 10% of fetal calf serum, […] of penicillin, and 50 μg/ml of streptomycin, for 10 to 14 days with medium changes every 3 days. After completing confluency, the cells were dissociated by trypsin treatment and recultured in new culture flasks. This procedure was repeated further twice and more. […] The cells will hereinafter be referred to as astroglial cells.
Astroglial cells were innoculated in 24-well plates having a well surface area of 2.1 cm^2 (a product of Falcon Co.) at a cell density of about 3×10^4 cells/well and cultured for 3 days in DMEM . medium supplemented with 10% of fetal calf serum. After completing confluency about 10^7 cells/well), the medium was changed to DMEM medium (0.5 ml/well) supplemented with 0.5% of bovine serum albumin ((fraction V) and cultured for 3 days. The culture was further continued with medium changes every 3 days. After cells were practically synchronized in the quiscent stage, the medium was changed to 0.5 ml of the medium supplemented with 0.5% of bovine serum albumin and containing a prescribed concentration of test sample as illustrated in Tables. […] Data are expressed as fold increase in NGF content over that in the absence of the test sample. […] Data are presented as means ±SE of four determinations.

Where [3] appears, read: ip, intraperitoneal injection, read-out: LD50 i.p.
The mark [4] stands for this setting: intravenous injection, read-out: LD50 i.v.
Setting [5] is: oral route, read-out: LD50 p.o.
The mark [6] stands for this setting: 24 h, read-out: Ratio of NGF increase.
The mark [7] stands for this setting: 24 h, read-out: Ratio of NGF increase, Table 3, 0.10 mM, 24 hours, mean ± SE of four determinations.
[8] abbreviates: 24 h, read-out: Ratio of NGF increase, Table 3, 0.25 mM, 24 hours, mean ± SE of four determinations.
The mark [9] stands for this setting: 24 h, read-out: Ratio of NGF increase, 24-hr culture.
[10] abbreviates: 48 h, read-out: Ratio of NGF increase, 48-hr culture.

Where two headings read alike, the source gives them in different places.

Take `CCCc1ccc2c(c1)OC(C)(C)O2` [R = --C(CH3)2 --, R1 = H, R2 = n-Propyl, 5-n-Propyl-2,2-dimethyl-1,3-benzodioxol]: the LD50 (usually the dose at which mortality reaches 50%) in “Acute toxicity (LD50)” (setting [3]) was greater than 1500 mg/kg; in the data set “Acute toxicity (LD50)” (setting [4]), greater than 500 mg/kg; in “Acute toxicity (LD50)” (setting [5]) it was greater than 3500 mg/kg. Moreover, in the data set on NGF, the “NGF content after 48 hr.” value was 1.15 ± 0.18 pg/mg wet tissue of frontal co. Further, in the data set with NGF, the “NGF content after 7 days” value is 1.51 ± 0.49 pg/mg wet tissue of frontal co.
For `CCCc1ccc2oc(=O)c(=O)oc2c1` [R = --CO.CO--, R1 = H, R2 = n-Propyl, 6-n-propyl-1,4-benzodioxine-2,3-dione], the 50% lethal dose (LD50) was greater than 1250 mg/kg in the data set “Acute toxicity (LD50)” (setting [3]), greater than 250 mg/kg in “Acute toxicity (LD50)” (setting [4]) and greater than 3000 mg/kg in the data set “Acute toxicity (LD50)” (setting [5]). Also, the “NGF content after 48 hr.” value with NGF is reported as 1.54 ± 0.20 pg/mg wet tissue of frontal co. In addition, the “NGF content after 7 days” value in the data set on NGF is on record as 2.02 ± 0.47 pg/mg wet tissue of frontal co.
With `CCc1ccc(O)c(O)c1` [R = Two H, R1 = H, R2 = Ethyl, 4-ethylcatechol], in data set [1] (setting [6]), the fold induction at 30 µM is 10 ± 0.97. Further, the results for the fold induction at 100 µM in data set [1] (setting [6]) and in data set [2] (setting [7]) were 12.1 ± 1.09 and 55.2 ± 3.24, respectively. Besides, the fold induction at 250 µM in data set [2] (setting [8]) is 64.7 ± 4.26. Also, the LD50 in the data set “Acute toxicity (LD50)” (setting [3]) was greater than 300 mg/kg; in “Acute toxicity (LD50)” (setting [4]), greater than 75 mg/kg; in the data set “Acute toxicity (LD50)” (setting [5]) it was greater than 1000 mg/kg. Further, the “NGF content after 48 hr.” value in the data set on NGF is 1.96 ± 0.42 pg/mg wet tissue of frontal co. Besides, the “NGF content after 7 days” value in the data set with NGF is on record as 1.73 ± 0.39 pg/mg wet tissue of frontal co.
For `Cc1ccc(O)c(O)c1` [R = Two H, R1 = H, R2 = Methyl, 4-Methylcatechol], the fold induction at 30 µM in data set [1] (setting [6]) worked out at 8.91 ± 0.43; in data set [1] (setting [9]) it was 8.77 ± 0.66; in data set [1] (setting [10]), 9.21 ± 0.69. The fold induction at 100 µM in data set [1] (setting [6]) was 2.36 ± 1.9; in data set [2] (24 h, read-out: Ratio of NGF increase, 24-hr culture, Table 4, 0.10 mM, 24-hr culture) it was 77.3 ± 9.21; in data set [2] (setting [7]) it was 80.8 ± 4.21; in data set [2] (48 h, read-out: Ratio of NGF increase, 48-hr culture, Table 4, 0.10 mM, 48-hr culture), 106 ± 7.61. The fold induction at 150 µM in data set [1] (setting [9]) came to 2.87 ± 0.54; in data set [1] (setting [10]) it was 2.49 ± 0.88. Further, the fold induction at 250 µM was found to be 6.59 ± 1.34 in data set [2] (24 h, read-out: Ratio of NGF increase, 24-hr culture, Table 4, 0.25 mM, 24-hr culture); 4.89 ± 1.37 in data set [2] (setting [8]); 2.47 ± 1.22 in data set [2] (48 h, read-out: Ratio of NGF increase, 48-hr culture, Table 4, 0.25 mM, 48-hr culture). In addition, the LD50 in the data set “Acute toxicity (LD50)” (setting [3]) was greater than 200 mg/kg; in “Acute toxicity (LD50)” (setting [4]) it was greater than 50 mg/kg; in “Acute toxicity (LD50)” (setting [5]), greater than 500 mg/kg. Further, the “NGF content after 48 hr.” value in the data set with NGF is recorded as 2.26 ± 0.24 pg/mg wet tissue of frontal co. For the same compound, in the data set on NGF, the “NGF content after 7 days” value is 1.64 ± 0.46 pg/mg wet tissue of frontal co.
For the compound `CCCCc1ccc(O)c(O)c1` [R = Two H, R1 = H, R2 = n-Butyl, 4-n-butylcatechol], the fold induction at 30 µM in data set [1] (setting [6]) came out at 8.21 ± 1.1. Moreover, the fold induction at 100 µM in data set [1] (setting [6]) came out at 14 ± 1.33; in data set [2] (setting [7]), 59.7 ± 3. In addition, the fold induction at 250 µM in data set [2] (setting [8]) was found to be 88.3 ± 2.47. The median lethal dose (LD50) in “Acute toxicity (LD50)” (setting [3]) was greater than 500 mg/kg; in “Acute toxicity (LD50)” (setting [4]), greater than 150 mg/kg; in “Acute toxicity (LD50)” (setting [5]), greater than 1500 mg/kg. For the same compound, the “NGF content after 48 hr.” value in the data set with NGF is on record as 1.88 ± 0.46 pg/mg wet tissue of frontal co. For the same compound, the “NGF content after 7 days” value in the data set with NGF is 2.25 ± 0.33 pg/mg wet tissue of frontal co.
`Cc1cccc(O)c1O` [R = Two H, R1 = Methyl, R2 = H]: the fold induction at 30 µM in data set [1] (setting [6]) was 8.34 ± 0.82. The results for the fold induction at 100 µM in data set [1] (setting [6]) and in data set [2] (setting [7]) were 3.92 ± 1.23 and 76.3 ± 6.34, respectively. For the same compound, the fold induction at 250 µM in data set [2] (setting [8]) was found to be 5.02 ± 1.98. The 50% lethal dose (LD50) in “Acute toxicity (LD50)” (ip, read-out: LD50 i.p.) is greater than 200 mg/kg; in the data set “Acute toxicity (LD50)” (iv, read-out: LD50 i.v.), greater than 50 mg/kg; in the data set “Acute toxicity (LD50)” (po, read-out: LD50 p.o.), greater than 500 mg/kg.
On to `CCCc1ccc(OC(C)=O)c(OC(C)=O)c1` [R = Two acetyl, R1 = H, R2 = n-Propyl, 1,2-diacetoxy-4-propylbenzene], for which the values for the LD50 in the data set “Acute toxicity (LD50)” (setting [3]), in the data set “Acute toxicity (LD50)” (setting [4]) and in “Acute toxicity (LD50)” (setting [5]) were greater than 750 mg/kg, greater than 250 mg/kg and greater than 2500 mg/kg, respectively. The “NGF content after 48 hr.” value in the data set on NGF was 1.71 ± 0.28 pg/mg wet tissue of frontal co. Moreover, in the data set on NGF, the “NGF content after 7 days” value was 2.16 ± 0.46 pg/mg wet tissue of frontal co.
As to `CNC[C@H](O)c1ccc(O)c(O)c1` [l-epinephrine, reference compound], in data set [1] (24 h, read-out: activity (NGF increase), 0.05 mM), the fold induction at 50 µM stood at 6.29 ± 0.11. Also, the fold induction at 150 µM in data set [1] (24 h, read-out: activity (NGF increase), 0.15 mM) amounted to 14 ± 0.83. In addition, the fold induction at 100 µM in data set [2] (24 h, read-out: activity (NGF increase), 0.10 mM) came to 8.62 ± 1.21. In data set [2] (24 h, read-out: activity (NGF increase), 0.25 mM), the fold induction at 250 µM was 14.6 ± 2.67.
